This passage reports IC50 and HC50 results from ChEMBL document CHEMBL1152749, “Haemolytic activity, cytotoxicity and membrane cell permeabilization of semi-synthetic and natural lupane- and oleanane-type saponins” (Bioorg Med Chem, 2009).

pIC50: −log10 of the molar value.

Data set [1] concerns DLD-1. As to the kind of experiment: Cell membrane permeabilization in human DLD1 cells assessed as drug level causing decrease in calcein fluorescence. The class given is ADME, cell-based.
For data set [2], the system named is A549. As to the kind of experiment: Cytotoxicity against human A549 cells after 48 hrs by resazurin reduction test. The class given is functional, cell-based. The note with it: A549, 48 h. A general note: Alamar Blue is a resazurin reagent that responds to reducing activity.
Data set [3] concerns A549. The data set is described as follows: Cell membrane permeabilization in human A549 cells assessed as drug level causing decrease in calcein fluorescence. It is filed as ADME, cell-based.
Data set [4] can be described thus: Cytotoxicity against human WS1 cells after 48 hrs by resazurin reduction test. The class given is cell-based. The note with it: WS1, 48 h.
Data set [5] relates to DLD-1. The data set is described as follows: Cytotoxicity against human DLD1 cells after 48 hrs by resazurin reduction test. The class given is functional, cell-based. The settings on record: DLD-1, 48 h.
Data set [6] is described as follows: Cell membrane permeabilization in human WS1 cells assessed as drug level causing decrease in calcein fluorescence. It is filed as ADME, cell-based.
The nature of data set [7]: Toxicity in sheep erythrocytes assessed as induction of hemolysis. It is filed as cell-based, Ovis aries, Erythrocyte. The settings on record: read-out: HD50 (the source's name).

As for `C=C(C)[C@@H]1CC[C@]2(C(=O)O)CC[C@]3(C)[C@H](CC[C@@H]4[C@@]5(C)CC[C@H](O[C@@H]6OC[C@H](O)[C@H](O)[C@H]6O[C@@H]6O[C@@H](C)[C@H](O)[C@@H](O)[C@H]6O)C(C)(C)[C@@H]5CC[C@]43C)[C@@H]12`, the pIC50 (in general, the IC50 on a negative log10 scale, so that one unit is a factor of ten) in the data set with DLD-1 [1] was below 3.70; in the data set on A549 [2], below 4.00; with A549 [3], below 3.70; in data set [4], below 4.00; in the data set on DLD-1 [5] it was below 4.00; in data set [6] it was below 3.70. Also, the HC50 in data set [7] stood at 78 µM.
